Results from PubChem BioAssay AID1918946 (Molecular Pharmacology Branch, DTP, NCI, 2023).
pIC50: −log10 of the molar value.

System: 885512-296-R-J2-PDC complex spheroid viability
Test: Anticancer human tumor 885512-296-R-J2-PDC patient-derived breast carcinoma cell line growth inhibition
Conditions: for pIC50: curve of first compound; for viability, T/C: stronger effect = lower value
Description: Multicellular complex tumor spheroid response to LSD1 Inhibitor Iadademstat in combination with a variety of drugs and investigational agents in selected tumor cell lines
The current study was undertaken to assess response to LSD1 inhibitors in combination with standard-of-care drugs and investigational agents in solid tumor complex spheroid models as well as in the K-562 leukemia. Complex spheroids include a stromal component modeled by human endothelial cells (HUVEC) and fibroblasts modeled by human mesenchymal stem cells (MSCs). The concentration ranges selected for each drug and investigational agent were based upon clinically achievable concentrations if the clinical Cmax of the agent was known.
Compounds. The drugs and investigational agents used in this study are listed on Table 1. All of the agents used, including staurosporine (NSC755774) and gemcitabine (NSC613327), were obtained from the Developmental Therapeutics Program, NCI. FDA-approved anticancer drugs are available from the NCI at http://dtp.nci.nih.gov/branches/dscb/oncology_drugset_explanation.html. Drugs and investigational agents were >95% pure by proton nuclear magnetic resonance (NMR) and liquid chromatography/mass spectrometry (LC/MS). Stock solutions were prepared at 400x in DMSO, stored at -70 degrees C, and diluted in fresh medium prior to their use. The final concentration of DMSO in cell culture wells never exceeded 0.25% (v/v). The FDA-approved anticancer drug set is available from the Developmental Therapeutics Program at https://dtp.cancer.gov/organization/dscb/obtaining/available_plates.htm. All drugs and investigational agents were tested over a range starting from a high concentration at or near the clinical Cmax and decreasing in half-log increments. If the clinical Cmax for an agent had not been determined, the highest concentration tested was 10 microM.
Cell Lines. The patient-derived cancer cell (PDC) lines: 292921-168-R-J2-PDC, K24384-001-R-PDC, and 521955-158-R2-J5-PDC pancreatic carcinomas, 556581-035-R-J1 ovarian carcinoma, 324938-238-R-J1-PDC, 855422-203-R-J1-PDC and 883617-216-R-J1-PDC urothelial bladder carcinomas, 743489-274-T-PDC renal cell carcinoma, 138582-R-J1 Merkel cell tumor, K60290-347-R-J1 and K57222-313-R-J1-PDC glioblastomas, 653999-131-R-J2-PDC, LG0703-F948-PDC, and 349418-098-R-PDC non-small cell lung carcinomas, 885512-296-R-J2-PDC, 171881-019-R-J1-PDC breast carcinomas and 186277-243-T-J2-PDC and 233499-124-R-J2-PDC colon carcinomas were obtained from the NCI Patient-Derived Models Repository (PDMR, https://pdmr.cancer.gov). The established cell lines NCI/ADR-RES (RRID:CVCL_14520 and OVCAR-5 (RRID:CVCL_1628) ovarian carcinomas, 786-O (RRID:CVCL_1051) and A498 (RRID:CVCL_A498) renal cell carcinoma, NCI-H211 (ATCC, cat. CRL-5824; RRID:CVCL_1529), NCI-H196 (ATCC, cat. CRL-5823, RRID:CVCL_1509), SW 1271 (ATCC, cat. CRL-2177, RRID:CVCL_1716) and NCI-H1876 (ATCC, cat. CRL-5902, RRID:CVCL_1503) small cell lung carcinomas, MDA-MB-231 (RRID:CVCL_0062) and MDA-MB-468 (RRID:CVCL_0419)breast carcinomas (10-12). Pooled donor human umbilical vein endothelial cells (HUVEC, Lonza, cat. CC-2519) and human mesenchymal stem cells (hMSC, Lonza, cat. PT-2501) were purchased from Lonza (Walkersville, MD).
Cell Culture. All cells were maintained in an incubator at 37 degrees C and 5% CO2 with 95% humidity. The PDC lines were cultured according to standard operating procedures established by the NCI PDMR (https://pdmr.cancer.gov). Briefly all PDCs were thawed and cultured in Matrigel-coated flasks prepared with a working solution of 1X Ham's F-12 nutrient mix, without supplementation (Invitrogen, Waltham, MA, cat. 11765054), 100 U/mL penicillin-streptomycin (Invitrogen, cat. 15140122), and 2.5% Matrigel (Corning Inc., Corning, NY, cat. 354248) for the first three passages. […]

[1] = second compound 0.1 µM, first compound 0.00316 µM
[2] = second compound 0.1 µM, first compound 0.01 µM
[3] = second compound 0.1 µM, first compound 0.0316 µM
[4] = second compound 0.1 µM, first compound 0.1 µM
[5] = second compound 0.316 µM, first compound 0.00316 µM
[6] = second compound 0.316 µM, first compound 0.01 µM
[7] = second compound 0.316 µM, first compound 0.0316 µM
[8] = second compound 0.316 µM, first compound 0.1 µM
[9] = second compound 1 µM, first compound 0.00316 µM
[10] = second compound 1 µM, first compound 0.01 µM
[11] = second compound 1 µM, first compound 0.0316 µM
[12] = second compound 1 µM, first compound 0.1 µM
[13] = second compound 3.16 µM, first compound 0.00316 µM
[14] = second compound 3.16 µM, first compound 0.01 µM
[15] = second compound 3.16 µM, first compound 0.0316 µM
[16] = second compound 3.16 µM, first compound 0.1 µM
[17] = second compound 10 µM, first compound 0.00316 µM
[18] = second compound 10 µM, first compound 0.01 µM
[19] = second compound 10 µM, first compound 0.0316 µM
[20] = second compound 10 µM, first compound 0.1 µM
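Further: spheroids exposed to agents for 7 days before viability read.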

CC[C@@]1(O)C(=O)OCc2c1cc1n(c2=O)Cc2cc3c(CN(C)C)c(O)ccc3nc2-1 + NC1CC1c1ccc(-c2cccc(O)c2)cc1 gave a pIC50 (second compound 0.1 µM) of 9.03, a pIC50 (second compound 0.316 µM) of 8.97 and a pIC50 (second compound 1 µM) of 9.09. It also gave a pIC50 (second compound 3.16 µM) of 9.10, a pIC50 (second compound 10 µM) of 9.23 and a viability, T/C (second compound 0.1 µM, first compound 0.000316 µM) of 92.2%. For the same molecule, the viability, T/C (second compound 0.1 µM, first compound 0.001 µM) was 47.2%, the viability, T/C [1] was 4.42% and the viability, T/C [2] was 3.26%. The viability, T/C [3] was 2.54%, the viability, T/C [4] was 1.68% and the viability, T/C (second compound 0.316 µM, first compound 0.000316 µM) was 97.2%. The viability, T/C (second compound 0.316 µM, first compound 0.001 µM) was 52.5%, the viability, T/C [5] was 4.34% and the viability, T/C [6] was 2.93%. The viability, T/C [7] was 1.9%, the viability, T/C [8] was 1.67% and the viability, T/C (second compound 1 µM, first compound 0.000316 µM) was 92.2%. For the same molecule, the viability, T/C (second compound 1 µM, first compound 0.001 µM) was 40.2%, the viability, T/C [9] was 5.01% and the viability, T/C [10] was 3.22%. It also gave a viability, T/C [11] of 2.56%, a viability, T/C [12] of 1.7% and a viability, T/C (second compound 3.16 µM, first compound 0.000316 µM) of 91.8%. For the same molecule, the viability, T/C (second compound 3.16 µM, first compound 0.001 µM) was 39.3%, the viability, T/C [13] was 4.57% and the viability, T/C [14] was 2.89%. The viability, T/C [15] was 1.84%, the viability, T/C [16] was 1.56% and the viability, T/C (second compound 10 µM, first compound 0.000316 µM) was 72.7%. For the same molecule, the viability, T/C (second compound 10 µM, first compound 0.001 µM) was 31.1%, the viability, T/C [17] was 3.84% and the viability, T/C [18] was 3.11%. It also gave a viability, T/C [19] of 2.42% and a viability, T/C [20] of 1.6%.

COc1cc(C2c3cc4c(cc3C(OC3OC5COC(C)OC5C(O)C3O)C3COC(=O)C23)OCO4)cc(OC)c1O (stereo not given) + NC1CC1c1ccc(-c2cccc(O)c2)cc1 was tested, and the pIC50 (second compound 0.1 µM) was 7.29, the pIC50 (second compound 0.316 µM) was 7.32 and the pIC50 (second compound 1 µM) was 7.33. For the same molecule, the pIC50 (second compound 3.16 µM) was 7.45, the pIC50 (second compound 10 µM) was 7.72 and the viability, T/C (second compound 0.1 µM, first compound 0.00949 µM) was 115%. For the same molecule, the viability, T/C (second compound 0.1 µM, first compound 0.03 µM) was 78.2%, the viability, T/C (second compound 0.1 µM, first compound 0.0949 µM) was 18.4% and the viability, T/C (second compound 0.1 µM, first compound 0.3 µM) was 5.27%. The viability, T/C (second compound 0.1 µM, first compound 0.949 µM) was 3.81%, the viability, T/C (second compound 0.1 µM, first compound 3 µM) was 3.41% and the viability, T/C (second compound 0.316 µM, first compound 0.00949 µM) was 111%. It also gave a viability, T/C (second compound 0.316 µM, first compound 0.03 µM) of 73.5%, a viability, T/C (second compound 0.316 µM, first compound 0.0949 µM) of 17% and a viability, T/C (second compound 0.316 µM, first compound 0.3 µM) of 4.71%. The viability, T/C (second compound 0.316 µM, first compound 0.949 µM) was 3.36%, the viability, T/C (second compound 0.316 µM, first compound 3 µM) was 2.8% and the viability, T/C (second compound 1 µM, first compound 0.00949 µM) was 113%. It also gave a viability, T/C (second compound 1 µM, first compound 0.03 µM) of 71%, a viability, T/C (second compound 1 µM, first compound 0.0949 µM) of 16.5% and a viability, T/C (second compound 1 µM, first compound 0.3 µM) of 5.06%. The viability, T/C (second compound 1 µM, first compound 0.949 µM) was 4%, the viability, T/C (second compound 1 µM, first compound 3 µM) was 3.54% and the viability, T/C (second compound 3.16 µM, first compound 0.00949 µM) was 100%. The viability, T/C (second compound 3.16 µM, first compound 0.03 µM) was 56%, the viability, T/C (second compound 3.16 µM, first compound 0.0949 µM) was 17.2% and the viability, T/C (second compound 3.16 µM, first compound 0.3 µM) was 3.77%. For the same molecule, the viability, T/C (second compound 3.16 µM, first compound 0.949 µM) was 3.77%, the viability, T/C (second compound 3.16 µM, first compound 3 µM) was 2.6% and the viability, T/C (second compound 10 µM, first compound 0.00949 µM) was 68.4%. It also gave a viability, T/C (second compound 10 µM, first compound 0.03 µM) of 37.9%, a viability, T/C (second compound 10 µM, first compound 0.0949 µM) of 9.86% and a viability, T/C (second compound 10 µM, first compound 0.3 µM) of 3.55%. The viability, T/C (second compound 10 µM, first compound 0.949 µM) was 3.7% and the viability, T/C (second compound 10 µM, first compound 3 µM) was 3.37%.

For Nc1ncn(C2CC(O)C(CO)O2)c(=O)n1 (stereo not given) + NC1CC1c1ccc(-c2cccc(O)c2)cc1, the pIC50 (second compound 0.1 µM) was 7.11, the pIC50 (second compound 0.316 µM) was 7.14 and the pIC50 (second compound 1 µM) was 7.06. The pIC50 (second compound 3.16 µM) was 7.14, the pIC50 (second compound 10 µM) was 7.33 and the viability, T/C [1] was 116%. For the same molecule, the viability, T/C [2] was 106%, the viability, T/C [3] was 79% and the viability, T/C [4] was 41.6%. For the same molecule, the viability, T/C (second compound 0.1 µM, first compound 0.316 µM) was 21.4%, the viability, T/C (second compound 0.1 µM, first compound 1 µM) was 13.3% and the viability, T/C [5] was 106%. The viability, T/C [6] was 112%, the viability, T/C [7] was 70.5% and the viability, T/C [8] was 43.1%. For the same molecule, the viability, T/C (second compound 0.316 µM, first compound 0.316 µM) was 23.4%, the viability, T/C (second compound 0.316 µM, first compound 1 µM) was 15.9% and the viability, T/C [9] was 107%. The viability, T/C [10] was 99.4%, the viability, T/C [11] was 81.2% and the viability, T/C [12] was 44.5%. It also gave a viability, T/C (second compound 1 µM, first compound 0.316 µM) of 22.9%, a viability, T/C (second compound 1 µM, first compound 1 µM) of 13.4% and a viability, T/C [13] of 95.5%. It also gave a viability, T/C [14] of 103%, a viability, T/C [15] of 73.1% and a viability, T/C [16] of 40.6%. It also gave a viability, T/C (second compound 3.16 µM, first compound 0.316 µM) of 21.7%, a viability, T/C (second compound 3.16 µM, first compound 1 µM) of 13.4% and a viability, T/C [17] of 72%. For the same molecule, the viability, T/C [18] was 69.5%, the viability, T/C [19] was 57.5% and the viability, T/C [20] was 34.6%. The viability, T/C (second compound 10 µM, first compound 0.316 µM) was 18.3% and the viability, T/C (second compound 10 µM, first compound 1 µM) was 11.4%.
